Like-named read-outs stand apart in the source and are kept apart here.
Legend:
Type in all cases: cell-based
K562 = assay: Cytotoxicity against cancer cell lines (Example 5), K562; conditions: Tables 5-12
Procedure: (§1) All of the compounds synthesized were tested against a number of cancer cell lines: Hela KB, Cos7, Molt4, K562, EU1, and T98G. The cancer cell lines vary from leukemia cell lines (Molt4, EU, K562) to solid-state tumor cell lines (Hela, KB, Cos7) and the drug resistant cell lines (T98G).

HeLa = assay: Cytotoxicity against cancer cell lines (Example 5), Hela; conditions: Tables 5-12
Procedure: as §1

Cos7 = assay: Cytotoxicity against cancer cell lines (Example 5), Cos7; conditions: Tables 5-12
Procedure: as §1

MOLT4 = assay: Cytotoxicity against cancer cell lines (Example 5), Molt4
Procedure: as §1

T98G = assay: Cytotoxicity against cancer cell lines (Example 5), T98G; conditions: Tables 5-12; drug resistant cell line
Procedure: as §1

KB = assay: Cytotoxicity against cancer cell lines (Example 5), KB; conditions: Tables 5-12
Procedure: as §1

EU1 = assay: Cytotoxicity against cancer cell lines (Example 5), EU1; conditions: Tables 5-12
Procedure: as §1

[1] = Tables 5-12, read-out: IC50 Molt4

Row | Structure (SMILES) | IC50 (K562) | IC50 (HeLa) | IC50 (Cos7) | IC50 (MOLT4; [1]) | IC50 (T98G) | IC50 (KB) | IC50 (EU1) | IC50 (MOLT4; cell line not given, matches Table 8 Molt4, read-out: IC50 value)
1 | CN1CCN(CC(=O)Nc2cc(O)c3c(c2)C(=O)c2cccc(O)c2C3=O)CC1 [BW-AQ-114] | 0.84 ± 0.36 µM | 3.9 ± 1 µM | 2 ± 0.6 µM | 0.284 ± 0.021 µM | > 12.5 µM | 10.2 ± 2.26 µM | – | –
2 | COC(=O)c1cc(OCCN=[N+]=[N-])c2c(c1)C(=O)c1cccc(OCCN=[N+]=[N-])c1C2=O [BW-AQ-120] | > 6.25 µM | > 12.5 µM | ~50 µM | > 1.6 µM | > 12.5 µM | > 50 µM | – | –
3 | [N-]=[N+]=NCCOc1cccc2c1C(=O)c1c(OCCN=[N+]=[N-])cc(C(=O)O)cc1C2=O [BW-AQ-121] | > 6.25 µM | > 12.5 µM | > 50 µM | > 1.6 µM | > 12.5 µM | > 50 µM | – | –
4 | [N-]=[N+]=NCCOc1cccc2c1C(=O)c1c(OCCN=[N+]=[N-])cc(C(=O)N=[N+]=[N-])cc1C2=O [BW-AQ-122] | > 6.25 µM | > 12.5 µM | > 50 µM | > 1.6 µM | > 12.5 µM | > 50 µM | – | –
5 | [N-]=[N+]=NCCOc1cccc2c1C(=O)c1c(OCCN=[N+]=[N-])cc(N)cc1C2=O [BW-AQ-123] | > 6.25 µM | > 50 µM | – | > 1.6 µM | > 12.5 µM | 20.5 µM | – | –
6 | O=C(CBr)Nc1cc(O)c2c(c1)C(=O)c1cccc(OCc3ccccc3)c1C2=O [BW-AQ-127] | 1.95 ± 0.58 µM | 5.6 ± 0.63 µM | 1.7 ± 0.43 µM | – | 13.8 ± 2.5 µM | 5.4 ± 2.5 µM | 0.084 ± 0.058 µM | 0.028 µM
7 | COc1cccc2c1C(=O)c1c(OC)cc(NC(=O)C(F)(F)F)cc1C2=O [BW-AQ-132] | > 6.25 µM | > 50 µM | > 50 µM | > 1.6 µM | > 12.5 µM | > 50 µM | – | –
8 | COc1cccc2c1C(=O)c1c(OC)cc(NC(C)=O)cc1C2=O [BW-AQ-134] | > 6.25 µM | > 50 µM | > 50 µM | > 1.6 µM | > 50 µM | > 50 µM | – | –
9 | COc1cccc2c1C(=O)c1c(OC)cc(NC(=O)CN=[N+]=[N-])cc1C2=O [BW-AQ-137] | > 6.25 µM | 24.6 µM | > 50 µM | > 1.6 µM | > 50 µM | 23.6 µM | – | –
10 | COc1cccc2c1C(=O)c1c(OC)cc(NS(=O)(=O)CCl)cc1C2=O [BW-AQ-138] | > 6.25 µM | > 50 µM | > 50 µM | > 1.6 µM | > 50 µM | > 50 µM | – | –
11 | O=C1c2cccc(O)c2C(=O)c2c(O)cc(-c3cccs3)cc21 [BW-AQ-140] | 3.2 ± 1.5 µM | 3.1 ± 0.68 µM | 2.2 ± 0.41 µM | 0.209 ± 0.044 µM | 13.8 ± 4 µM | 3.4 ± 1.02 µM | 0.69 ± 0.152 µM | –
12 | COc1cccc2c1C(=O)c1c(OC)cc(N)cc1C2=O [BW-AQ-145] | > 25 µM | > 50 µM | > 50 µM | > 25 µM | > 50 µM | > 50 µM | > 25 µM | –
13 | CCCOC(=O)c1cc(OCCC)c2c(c1)C(=O)c1cccc(OCCC)c1C2=O [BW-AQ-147] | > 25 µM | > 50 µM | – | > 25 µM | > 50 µM | > 50 µM | > 25 µM | –
14 | O=C(OCc1ccccc1)c1cc(OCc2ccccc2)c2c(c1)C(=O)c1cccc(OCc3ccccc3)c1C2=O [BW-AQ-148] | > 25 µM | 18.6 µM | > 50 µM | > 25 µM | > 50 µM | > 50 µM | > 25 µM | –
15 | [N-]=[N+]=NC(=O)c1cc(OCc2ccccc2)c2c(c1)C(=O)c1cccc(OCc3ccccc3)c1C2=O [BW-AQ-149] | > 25 µM | > 50 µM | > 50 µM | > 25 µM | > 50 µM | > 50 µM | > 25 µM | –
16 | Nc1cc(OCc2ccccc2)c2c(c1)C(=O)c1cccc(OCc3ccccc3)c1C2=O [BW-AQ-150] | > 25 µM | ~50 µM | 17 µM | > 25 µM | > 50 µM | > 50 µM | > 25 µM | –
17 | C=CCOC(=O)c1cc(OCC=C)c2c(c1)C(=O)c1cccc(OCC=C)c1C2=O [BW-AQ-152] | > 25 µM | 27.6 µM | 12.5 µM | > 25 µM | 29.3 µM | 22.5 µM | > 25 µM | –
18 | C=CCOc1cccc2c1C(=O)c1c(OCC=C)cc(C(=O)O)cc1C2=O [BW-AQ-153] | > 25 µM | > 50 µM | > 50 µM | > 25 µM | > 50 µM | > 50 µM | > 25 µM | –
19 | C=CCOc1cccc2c1C(=O)c1c(OCC=C)cc(C(=O)N=[N+]=[N-])cc1C2=O [BW-AQ-154] | 19.5 µM | 24.3 µM | 19.4 µM | 6.66 µM | > 50 µM | > 50 µM | 3 µM | –
20 | C=CCOc1cccc2c1C(=O)c1c(OCC=C)cc(N)cc1C2=O [BW-AQ-155] | > 25 µM | ~50 µM | > 50 µM | > 25 µM | > 50 µM | 12.5 µM | > 25 µM | –
21 | CCOc1cccc2c1C(=O)c1c(OCC)cc(NC(=O)CN)cc1C2=O [BW-AQ-166] | > 25 µM | 11 µM | – | > 25 µM | 37.3 µM | 18.8 µM | > 25 µM | –
22 | COCC(=O)Nc1cc(OC)c2c(c1)C(=O)c1cccc(OC)c1C2=O [BW-AQ-170] | > 25 µM | > 50 µM | – | > 25 µM | > 50 µM | > 50 µM | > 25 µM | –
23 | COc1cccc2c1C(=O)c1c(OC)cc(NC(=O)C(F)F)cc1C2=O [BW-AQ-171] | > 25 µM | > 50 µM | – | > 25 µM | > 50 µM | 50 µM | > 25 µM | –
24 | COc1cccc2c1C(=O)c1c(OC)cc(NC(=O)CC#N)cc1C2=O [BW-AQ-172] | > 25 µM | > 50 µM | – | > 25 µM | > 50 µM | < 6.25 µM | > 25 µM | –
25 | COc1cccc2c1C(=O)c1c(OC)cc(NC(=O)CCCl)cc1C2=O [BW-AQ-173] | > 25 µM | 50 µM | – | > 25 µM | > 50 µM | 50 µM | 25 µM | –
26 | COc1cccc2c1C(=O)c1c(OC)cc(NC(=O)CCCCl)cc1C2=O [BW-AQ-174] | > 25 µM | > 50 µM | – | > 25 µM | > 50 µM | > 50 µM | > 25 µM | –
27 | COc1cccc2c1C(=O)c1c(OC)cc(NC(=O)COCc3ccccc3)cc1C2=O [BW-AQ-175] | > 25 µM | > 50 µM | – | 25 µM | > 50 µM | 33.6 µM | 20.5 µM | –
28 | CCOc1cccc2c1C(=O)c1c(OCC)cc(NC(=O)CCCCl)cc1C2=O [BW-AQ-179] | 10.7 µM | 6.25 µM | – | 15.3 µM | 50 µM | < 6.25 µM | 17.6 µM | –
29 | CCOc1cccc2c1C(=O)c1c(OCC)cc(NC(=O)COCc3ccccc3)cc1C2=O [BW-AQ-182] | > 25 µM | 47.3 µM | – | 16.8 µM | > 50 µM | > 50 µM | 16.8 µM | –

— patent US10544090B2, “Anthraquinone analogs and methods of making and using thereof” (Georgia State University Research Foundation, Inc., priority 2012, dated 2020)
